Data taken from patent US8193224B2, “Medicinal composition for prevention or treatment of parasitic protozoan infection” (Fujifilm Corporation, priority 2004, dated 2012).

Legend:
[1] = test system: Trypanosoma brucei rhodensiense (STIB 900 strain); assay: African trypanosome protozoa growth inhibition screening test; format: cell-based; details: chemotherapy index = EC50 rat L6 cells / EC50 African trypanosome protozoa
[2] = test system: Trypanosoma brucei rhodensiense (STIB 900 strain); assay: as above; format: cell-based; details: Trypanosoma brucei, STIB900; STIB 900 strain, blood stream form, 72 hours, Alamar Blue; read-out: 50% growth inhibiting concentration Trypanosoma brucei rhod.
Method: In the present example, protozoa of Trypanosoma brucei rhodensiense (STIB 900 strain), a trypamastigote living in blood stream, was used. The medium used in the experiment was a MEM medium which was sterilized with a filter and supplemented with 25 mM N-2-hydroxyethylpiperazine-2-ethansulfonic acid […]), 1 g/L glucose, 1% MEM non-essential amino acid, 0.2 mM 2-mercaptoethanol, 2 mM sodium pyruvate, 0.1 mM hypoxanthine, and 15% heat-treated horse serum. The protozoa was cultured in an atmosphere of CO2 concentration 5%, at a temperature of 37° C.
The compounds of the present invention to be used in the present test and the positive target drug (melarsoprol) were dissolved in DMSO to make a test solution of a predetermined concentration. A medium containing 8×10^3 protozoa, and a test solution containing a drug of a predetermined concentration or a drug-free DMSO were added to wells of a 96-well culture plate, and subsequently, medium was added so that the amount in each well becomes 100 μL. Test solutions were taken by duplicates. After culturing the culture plate for 72 hours in an incubator, growth inhibition activity was tested. Test was conducted as follows. 10 μL of Alamar Blue aqueous solution was added to each well, and the resultant was further cultured for 2 hours. Next, the culture plate was placed on a fluorescent micro-plate reader (Spectramax Gemeni XS; US Molecular Device), radiated at an excited wavelength of 536 nm. Fluorescent intensity was measured at 588 nm, to calculate the trypanosome protozoa infected rate of the test solution added-group, and of the control group. From the protozoan infection rate obtained in the above, growth inhibition rate was calculated with the following formula, to obtain a 50% growth inhibition concentration (EC50). Growth inhibition rate (%)={1−(b−a)/(c−a)}×100 a: early infection rate b: infection rate when test solution was added c: infection rate of the control

Row | Compound | Selective toxicity [1] | EC50 [2]
1 | CCN1/C(=C/C=c2\s/c(=C\c3sc4c5ccccc5ccc4[n+]3CC)n(CC)c2=O)Sc2ccc3ccccc3c21 [A-1] | 1900 | 16 nM
2 | CCN1/C(=C/C=c2\s/c(=C\C3=[N+](CC)CCS3)n(CC)c2=O)C=Cc2ccccc21 [A-10] | 100 | 200 nM
3 | CCN1C(C)=CS/C1=C\C=c1/s/c(=C\c2sc3ccccc3[n+]2CC)n(CC)c1=O [A-15] | 250 | 89 nM
